One test relates to Ramos B-Cell Line Stimulated with IL-4 (JAK-1 and JAK-3 / Stat-6, CD23). Kind of test: Assay for Ramos B-Cell Line Stimulated with IL-4 (CD23 upregulation, FACS). The class given is cell-based. As to conditions: Homo sapiens, Ramos, human Ramos B cells, compound 1 hour, IL-4 50 units/mL for 20-24 hours, anti-CD23-PE FACS; read-out: Example 2 (IC50). The source says: One means of assaying for such inhibition is detection of the effect of the 2,4-pyrimidinediamine compounds on the upregulation of downstream gene products. In the Ramos/IL4 assay, B-cells are stimulated with the cytokine Interleukin-4 (IL-4) leading to the activation of the JAK/Stat pathway through phosphorylation of the JAK family kinases, JAK1 and JAK3, which in turn phosphorylate and activate the transcription factor Stat-6. […] To study the effect of inhibitors (e.g., the 2,4-substituted pyrimindinediamine compounds described herein) on the JAK1 and JAK3 kinases, human Ramos B cells are stimulated with human IL-4. 20 to 24 hours post stimulation, cells are stained for upregulation of CD23 and analyzed using flow cytometry (FACS).
B-cells stimulated with cytokine Interleukin-4 (IL-4) activate the JAK/Stat pathway through phosphorylation of the JAK family kinases, JAK-1 and JAK-3, which in turn phosphorylate and activate the transcription factor Stat-6. […] To study the effect of inhibitors on the JAK family kinases, human Ramos B cells were stimulated with human IL-4.
Cells were maintained at a density of 3.5×10^5. The day before the experiment, Ramos B-cells were diluted to 3.5×10^5 cells/mL to ensure that they were in a logarithmic growth phase.
Cells were spun down and suspended in RPMI with 5% serum. 5×10^4 cells were used per point in a 96-well tissue culture plate. Cells were pre-incubated with compound or DMSO (Sigma-Aldrich, St. Louis, Mo., Cat No. D2650) vehicle control for 1 hour in a 37° C. incubator. Cells were then stimulated with IL-4 (Peprotech Inc., Rocky Hill, N.J., Cat No. 200-04) for a final concentration of 50 units/mL for 20-24 hours. […] Detection was performed using a BD LSR I System Flow Cytometer, purchased from Becton Dickinson Biosciences of San Jose, Calif.
As a reminder, the IC50 is the concentration that gives 50% inhibition. `Cc1cc(Nc2nc(Nc3ccc(CC#N)cc3)ncc2F)cc(C)c1OC(C)C#N` (stereo not drawn) [Compound I-97, N4-[4-(1-Cyanoethoxy)-3,5-dimethylphenyl]-N2-(4-cyanomethylphenyl)-5-fluoro-2,4-pyrimidinediamine]: the IC50 came to 0.155 µM.
On to `CCc1cc(Nc2ncc(F)c(Nc3cccc(OCC#N)c3)n2)cc(C#N)c1Cl` [Compound I-105, N2-(4-Chloro-3-cyano-5-ethylphenyl)-N4-(3-cyanomethoxyphenyl)-5-fluoro-2,4-pyrimidinediamine], for which the IC50 worked out at 31.6 µM.
Take `Cc1noc(COc2ccc(Nc3nc(Nc4cccc(C#N)c4)ncc3F)c(C)c2)n1` [Compound I-116, N2-(3-Cyanophenyl)-5-fluoro-N4-[2-methyl-4-((3-methyl-1,2,4-oxadiazol-5-yl)methoxy)phenyl]-2,4-pyrimidinediamine]: the IC50 is 1.44 µM.
For the compound `Cc1nc(COc2ccc(Nc3nc(Nc4ccc(C#N)cc4)ncc3F)cc2)no1` [Compound I-58, N2-(4-Cyanophenyl)-5-fluoro-N4-[4-((5-methyl-1,2,4-oxadiazol-3-yl)methoxy)phenyl]-2,4-pyrimidinediamine], the IC50 came to 0.967 µM.
Regarding `N#Cc1cccc(Nc2ncc(F)c(Nc3cccc(OCC(N)=O)c3)n2)c1` [Compound I-35, N4-(3-Aminocarbonylmethoxyphenyl)-N2-(3-cyanophenyl)-5-fluoro-2,4-pyrimidinediamine], the IC50 amounted to 0.326 µM.
The same measure, in the same setting: then `Cc1cnc(Nc2cccc(C(N)=O)c2)nc1Nc1ccc2c(c1)CCC(=O)N2C` [II-28, N2-(3-Aminocarbonylphenyl)-5-methyl-N4-(1-methyl-2-oxo-1,2,3,4-tetrahydroquinolin-6-yl)-2,4-pyrimidinediamine], with 0.899 µM.
For the compound `CCc1cc(Nc2ncc(F)c(Nc3ccc4c(c3)NC(=O)C(C)(C)O4)n2)cc(C#N)c1Cl` [II-25, N2-(4-Chloro-3-cyano-5-ethylphenyl)-N4-(2,2-dimethyl-3-oxo-4H-benzo[1,4]oxazin-6-yl)-5-fluoro-2,4-pyrimidinediamine], the IC50 worked out at 1.43 µM.
On to `Cc1cc(Nc2nc(Nc3ccc(CC#N)cc3)ncc2F)cc(C)c1OCC#N` [Compound I-89, N4-(4-Cyanomethoxy-3,5-dimethylphenyl)-N2-(4-cyanomethylphenyl)-5-fluoro-2,4-pyrimidinediamine], for which the IC50 is 0.167 µM.
Still for that read-out and setting: then `N#CCOc1cccc(Nc2nc(Nc3cccc(C(N)=O)c3)ncc2F)c1` [Compound I-45, N2-(3-Aminocarbonylphenyl)-N4-(3-cyanomethoxyphenyl)-5-fluoro-2,4-pyrimidinediamine], with 0.426 µM; and `CC1(C)Oc2ccc(Nc3nc(Nc4ccc5c(c4)C(=O)NCC5)ncc3F)nc2NC1=O` [IV-1, N4-[2,2-Dimethyl-3-oxo-4H-5-pyrido[1,4]oxazin-6-yl]-5-fluoro-N2-(I-oxo-1,2,3,4-tetrahydroisoquinolin-7-yl)-2,4-pyrimidinediamine], with 0.287 µM.
In the case of `CC(C#N)Oc1ccc(Nc2nc(Nc3ccc(C(N)=O)cc3)ncc2F)cc1` (stereo not drawn) [Compound I-81, N2-(4-Aminocarbonylphenyl)-N4-[4-(1-cyanoethoxy)phenyl]-5-fluoro-2,4-pyrimidinediamine], the IC50 came out at 0.0529 µM.
Still for that read-out and setting: then `Cc1cc(Nc2nc(Nc3ccc(C(N)=O)cc3)ncc2F)ccc1OC(C)C#N` (stereo not drawn) [Compound I-92, N2-(4-Aminocarbonylphenyl)-N4-[4-(1-cyanoethoxy)-3-methylphenyl]-5-fluoro-2,4-pyrimidinediamine], with 0.127 µM.
Turning to `Cc1cnc(Nc2cnc3c(c2)OCC(=O)N3)nc1Nc1cnc2c(c1)OCC(=O)N2` [VII-3, N4,N2-Bis(3-oxo[4H]-5-pyrido[1,4]oxazin-7-yl)-5-methyl-2,4-pyrimidinediamine], the IC50 stood at 0.195 µM.
Take `CN1CCN(c2ccc(Nc3ncc(F)c(Nc4ccc(CC#N)cc4)n3)cc2C(N)=O)CC1` [Compound I-74, N2-[3-Aminocarbonyl-4-(4-methylpiperazin-1-yl)phenyl]-N4-(4-cyanomethylphenyl)-5-fluoro-2,4-pyrimidinediamine]: the IC50 came to 0.429 µM.
Consider `Cc1cnc(Nc2ccc(C(N)=O)cc2)nc1Nc1ccc2c(c1)CCC(=O)N2C` [II-29, N2-(4-Aminocarbonylphenyl)-5-methyl-N4-(1-methyl-2-oxo-1,2,3,4-tetrahydroquinolin-6-yl)-2,4-pyrimidinediamine], for which the IC50 was 0.609 µM.
On to `N#Cc1ccc(Nc2ncc(F)c(Nc3cccc(OCC(N)=O)c3)n2)cc1` [Compound I-34, N4-(3-Aminocarbonylmethoxyphenyl)-N2-(4-cyanophenyl)-5-fluoro-2,4-pyrimidinediamine], for which the IC50 stood at 1.25 µM.
Turning to `NC(=O)c1ccc(Nc2ncc(F)c(Nc3cccc(-c4ncco4)c3)n2)cc1` [Compound I-13, N2-(4-Aminocarbonylphenyl)-5-fluoro-N4-[3-(oxazol-2-yl)phenyl]-2,4-pyrimidinediamine], the IC50 is 0.752 µM.
In the case of `Cc1cc(Nc2nc(Nc3cccc(C(N)=O)c3)ncc2F)ccc1OC(C)C#N` (stereo not drawn) [Compound I-93, N2-(3-Aminocarbonylphenyl)-N4-[4-(1-cyanoethoxy)-3-methylphenyl]-5-fluoro-2,4-pyrimidinediamine], the 50% inhibitory concentration (IC50) stood at 0.331 µM.
Consider `COc1cc(Nc2ncc(F)c(Nc3ccc4c(c3)NC(=O)C(C)(C)O4)n2)cc(OCC#N)c1OC` [II-15, N2-(3-Cyanomethoxy-4,5-dimethoxyphenyl)-N4-(2,2-dimethyl-3-oxo-4H-benzo[1,4]oxazin-6-yl)-5-fluoro-2,4-pyrimidinediamine], for which the IC50 is 0.0693 µM.
For the compound `CCc1cc(Nc2ncc(F)c(Nc3ccc4c(c3)NC(=O)C(F)(F)O4)n2)cc(C#N)c1Cl` [II-24, N2-(4-Chloro-3-cyano-5-ethylphenyl)-N4-(2,2-difluoro-3-oxo-4H-benzo[1,4]oxazin-6-yl)-5-fluoro-2,4-pyrimidinediamine], the IC50 was found to be 1.74 µM.
For the compound `CNC(=O)c1cc(Nc2ncc(F)c(Nc3ccc(OCC#N)cc3)n2)ccc1N1CCN(C)CC1` [Compound I-43, N4-(4-Cyanomethoxyphenyl)-5-fluoro-N2-[3-methylaminocarbonyl-4-(4-methylpiperazin-1-yl)phenyl]-2,4-pyrimidinediamine], the IC50 was 0.00356 µM.
Turning to `COc1cc(Nc2nc(Nc3ccc4oc(C(=O)NCCN5CCOCC5)cc4c3)ncc2F)ccc1Cl` [III-2, N4-(4-Chloro-3-methoxyphenyl)-5-fluoro-N2-[2-(2-(N-morpholinyl)ethylaminocarbonyl)benzofuran-5-yl]-2,4-pyrimidinediamine], the IC50 is 0.144 µM.
Turning to `COC(=O)c1ccc(Nc2nc(Nc3cccc(C(N)=O)c3)ncc2F)s1` [Compound I-123, N2-(3-Aminocarbonylphenyl)-5-fluoro-N4-(5-methoxycarbonylthiophen-2-yl)-2,4-pyrimidinediamine], the IC50 turned out to be 1.06 µM.
For the compound `N#CCc1ccc(Nc2nc(Nc3ccc(C(N)=O)cc3)ncc2F)cc1` [Compound I-67, N2-(4-Aminocarbonylphenyl)-N4-(4-cyanomethylphenyl)-5-fluoro-2,4-pyrimidinediamine], the IC50 stood at 0.171 µM.

Still in this test, the particulars now being: human Ramos B cells, compound 1 hour, IL-4 50 units/mL for 20-24 hours, anti-CD23-PE FACS; read-out: Example 2 (IC50).
With `CNC(=O)COc1cccc(Nc2ncc(C)c(Nc3ccc4c(c3)NC(=O)CO4)n2)c1` [II-5, 5-Methyl-N2-[3-(N-methylaminocarbonylmethyleneoxy)phenyl]-N4-(3-oxo-2H,4H-benzo[1,4]oxazin-6-yl)-2,4-pyrimidinediamine], the IC50 came out at 0.0285 µM.
With `CNC(=O)COc1cccc(Nc2ncc(F)c(Nc3ccc4c(c3)N(Cc3ccccn3)C(=O)CO4)n2)c1` [II-14, 5-Fluoro-N2-[3-(N-methylaminocarbonylmethyleneoxy)phenyl]-N4-[3-oxo-4-(2-pyridinylmethyl)-2H-benzo[1,4]oxazin-6-yl]-2,4-pyrimidinediamine], the IC50 was 0.672 µM.
Still for that read-out and setting: then `CN1CCN(C(=O)c2ccc(Nc3ncc(F)c(Nc4cccc(OCC#N)c4)n3)cc2)CC1` [Compound I-53, N4-(3-Cyanomethoxyphenyl)-5-fluoro-N2-[4-((4-methylpiperazin-1-yl)carbonyl)phenyl]-2,4-pyrimidinediamine], with 1.42 µM; and “N4-(4-Chloro-3-methoxyphenyl)-N2-[1-(2-(N-morpholinyl)ethylaminocarbonyl)-1H-indol-6-yl]-2,4-pyrimidinediamine [VI-4]”, with 0.889 µM; and `CNC(=O)COc1cc(Nc2ncc(F)c(Nc3ccc4c(n3)NC(=O)C(C)(C)O4)n2)cc(OC)c1OC` [II-21, N2-[4,5-Dimethoxy-3-(N-methylaminocarbonylmethyleneoxy)phenyl]-N4-(2,2-dimethyl-3-oxo-4H-5-pyrido[1,4]oxazin-6-yl)-5-fluoro-2,4-pyrimidinediamine], with 0.13 µM.
`CNC(=O)COc1cc(Nc2ncc(F)c(Nc3ccc4c(c3)NC(=O)CS4)n2)cc(OC)c1OC` [II-19, N2-[4,5-Dimethoxy-3-(N-methylaminocarbonylmethyleneoxy)phenyl]-5-Fluoro-N4-(3-oxo-2H,4H-benzo[1,4]thiazin-6-yl)-2,4-pyrimidinediamine]: the IC50 came to 0.095 µM.

These data come from patent US7834024B2, “Compositions and methods for inhibition of the JAK pathway” (Rigel Pharmaceuticals, Inc., priority 2007, dated 2010).
